Data set [1] deals with T1, UDP-glucuronosyltransferase 1A9 (Homo sapiens, UniProt O60656).
T1 sequence (O60656 whole entry): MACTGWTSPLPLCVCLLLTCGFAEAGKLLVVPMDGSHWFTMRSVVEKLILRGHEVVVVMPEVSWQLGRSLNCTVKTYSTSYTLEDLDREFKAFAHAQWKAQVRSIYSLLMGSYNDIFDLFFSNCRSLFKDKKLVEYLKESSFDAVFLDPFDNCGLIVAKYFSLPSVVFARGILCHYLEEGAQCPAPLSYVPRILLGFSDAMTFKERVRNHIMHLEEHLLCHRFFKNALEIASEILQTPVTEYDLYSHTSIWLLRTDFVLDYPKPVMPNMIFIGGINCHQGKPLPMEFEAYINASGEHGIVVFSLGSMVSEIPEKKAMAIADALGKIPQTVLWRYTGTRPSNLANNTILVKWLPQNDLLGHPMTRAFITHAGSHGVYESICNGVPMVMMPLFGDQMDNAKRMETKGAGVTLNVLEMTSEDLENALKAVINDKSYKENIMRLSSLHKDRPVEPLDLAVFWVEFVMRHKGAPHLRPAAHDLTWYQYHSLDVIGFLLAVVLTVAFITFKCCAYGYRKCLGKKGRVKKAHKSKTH
Description: Drug metabolism assessed as recombinat UGT1A9 (unknown origin) -mediated dextrophan-O-glucuronide formation. The class given is ADME.

Data set [2] concerns the target T2, UDP-glucuronosyltransferase 1A6 (Homo sapiens, UniProt P19224).
T2 sequence (P19224 whole entry): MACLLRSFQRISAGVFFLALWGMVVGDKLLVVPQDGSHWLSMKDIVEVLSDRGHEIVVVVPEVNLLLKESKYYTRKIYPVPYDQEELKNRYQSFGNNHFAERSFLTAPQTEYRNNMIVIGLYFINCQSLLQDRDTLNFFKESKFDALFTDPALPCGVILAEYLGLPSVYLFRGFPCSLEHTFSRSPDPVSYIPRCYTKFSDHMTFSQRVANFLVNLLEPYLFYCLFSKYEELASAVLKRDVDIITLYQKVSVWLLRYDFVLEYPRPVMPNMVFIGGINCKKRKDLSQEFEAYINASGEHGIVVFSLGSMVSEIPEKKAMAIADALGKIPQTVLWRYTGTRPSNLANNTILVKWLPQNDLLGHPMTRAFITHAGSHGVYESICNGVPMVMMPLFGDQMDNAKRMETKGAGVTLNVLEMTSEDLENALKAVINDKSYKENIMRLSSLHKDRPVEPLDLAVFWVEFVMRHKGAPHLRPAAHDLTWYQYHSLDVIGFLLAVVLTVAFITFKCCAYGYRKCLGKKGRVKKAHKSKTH
Description: Drug metabolism assessed as recombinat UGT1A6 (unknown origin) -mediated dextrophan-O-glucuronide formation. The format is ADME.

Data set [3] deals with T3, UDP-glucuronosyltransferase 1A8 (Homo sapiens, UniProt Q9HAW9).
T3 sequence (Q9HAW9 whole entry): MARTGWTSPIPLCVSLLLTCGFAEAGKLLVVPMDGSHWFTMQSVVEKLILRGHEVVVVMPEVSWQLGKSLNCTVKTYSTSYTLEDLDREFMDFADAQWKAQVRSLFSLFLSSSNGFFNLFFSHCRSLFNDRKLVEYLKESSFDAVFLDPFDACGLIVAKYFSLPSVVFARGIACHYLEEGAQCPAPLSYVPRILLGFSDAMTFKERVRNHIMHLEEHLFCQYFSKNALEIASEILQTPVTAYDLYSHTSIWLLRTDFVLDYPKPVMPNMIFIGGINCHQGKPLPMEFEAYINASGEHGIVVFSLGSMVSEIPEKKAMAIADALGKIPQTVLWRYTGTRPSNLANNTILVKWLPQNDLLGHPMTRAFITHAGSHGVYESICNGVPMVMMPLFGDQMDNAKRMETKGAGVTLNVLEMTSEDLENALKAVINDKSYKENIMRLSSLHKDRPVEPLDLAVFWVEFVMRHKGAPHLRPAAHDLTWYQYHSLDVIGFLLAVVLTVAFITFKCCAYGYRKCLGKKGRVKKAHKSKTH
In words: Drug metabolism assessed as recombinat UGT1A8 (unknown origin) -mediated dextrophan-O-glucuronide formation. The class given is ADME.

In the next data set the test system is Homo sapiens. In words: Ratio of AUC for compound to dexttomethorphan in human treated with 30 to 60 mg, po dexttomethorphan. The format is ADME, organism-based. The settings on record: in vivo.

For `CN1CC[C@@]23CCCC[C@@H]2[C@@H]1Cc1ccc(O)cc13` [DEXTRORPHAN], the Drug metabolism entry in data set [1], in data set [2] and in data set [3] was “metabolite_not_detected” in each case. Besides, the “Ratio AUC” value in the data set with Homo sapiens was 0.61.

These data come from ChEMBL document CHEMBL3526083, “Prediction of relative in vivo metabolite exposure from in vitro data using two model drugs: dextromethorphan and omeprazole” (Drug Metab Dispos, 2012).
